According to paper PMC6191125, “Peptidoglycan potentiates the membrane disrupting effect of the carboxyamidated form of DMS-DA6, a Gram-positive selective antimicrobial peptide isolated from Pachymedusa dacnicolor skin” (PLoS ONE, 2018):
In brackets after ≈: the same amount, converted by molar mass. Residues, ends and D or L forms follow the SMILES beside them.

Assays:
E. coli ATCC 35218 = type: cell-based, Escherichia coli; details: LB, 10^7 cfu/mL, 18 h at 37°C, peptide 0.2-100 μM, averaged over >=3 independent experiments in triplicate
Text: (§1) Gram-negative bacterial strains, Escherichia coli ATCC 8739, Escherichia coli ATCC 35218, Escherichia coli ML 35p, Escherichia coli K12, Pseudomonas aeruginosa ATCC 27853, and Gram-positive bacterial strains, Enterococcus faecalis ATCC29212, Kocuria rhizophila ATCC 9341, Staphylococcus aureus ATCC 6538, Staphylococcus aureus ATCC 29213, Staphylococcus aureus ST 1065, Staphylococcus epidermidis BM 3302, and Bacillus subtilis subsp. subtilis CIP 52.65, as well as two multiresistant strains (Staphylococcus aureus DAR 5829 (http://www.ncbi.nlm.nih.gov/bioproject/228435) and Enterococcus faecium BM 4147 [20] were cultured as described previously. The minimal inhibitory concentration (MIC) of the peptides was determined by the microtiter broth dilution method. Overnight precultures were subcultured in Luria Bertani (LB) medium at 37°C with vigorous shaking until mid-log phase (~2h) and diluted to 10^7 cfu/mL. Peptide solutions were prepared at different concentrations (from 2 to 500 μM) by successive 2-fold dilutions in water from 1 mM stock solutions. In each row of a 96-well nonbinding surface plate, 90 μL of bacteria were incubated with 10 μL of peptide solutions for 18 h at 37°C. The final peptide concentrations ranged from 0.2 to 100 μM. Cell growth was evaluated by visual inspection and absorbance at 600 nm to determine the lowest concentration of peptide that prevented cell growth. Wells were either opaque, indicating stationary phase growth, or transparent indicating no growth. The lowest concentration showing no visible growth was considered as the MIC. After measurement of the MIC, the bactericidal activity was determined by the addition of resazurin dye (30 μL, 0.01% w/v) to each well [22]. The plates were further incubated at 37°C for 18 h. Wells in which the dye turned pink indicated live bacteria, whereas wells in which the dye remained blue indicated dead bacteria. The minimal bactericidal concentration (MBC) is the lowest concentration with blue coloration (99.9% of bacteria were killed). Three to five independent assays were performed in triplicate. Positive controls correspond to medium plus 0.2% formaldehyde and negative controls to medium without peptide.

E. coli ATCC 8739 = type: cell-based, Escherichia coli
Text: as §1

E. coli K12 = type: cell-based, Escherichia coli; details: LB, 10^7 cfu/mL, 18 h at 37°C, peptide 0.2-100 μM, averaged over >=3 independent experiments in triplicate
Text: as §1

E. coli ML 35p = type: cell-based, Escherichia coli; details: LB, 10^7 cfu/mL, 18 h at 37°C, peptide 0.2-100 μM, averaged over >=3 independent experiments in triplicate
Text: as §1

[1] = test system: Ps. aeruginosa ATCC 27853; type: cell-based, Pseudomonas aeruginosa; details: LB, 10^7 cfu/mL, 18 h at 37°C, peptide 0.2-100 μM, averaged over >=3 independent experiments in triplicate
Text: as §1, with “Wells were either opaque, indicating stationary phase growth, or transparent indicating no growth. The lowest concentration showing no visible growth was considered as the MIC. After measurement of the MIC, the bactericidal activity was determined by the addition of resazurin dye (30 μL, 0.01% w/v) to each well [22]. The plates were further incubated at 37°C for 18 h. Wells in which the dye turned pink indicated live bacteria, whereas wells in which the dye remained blue indicated dead bacteria. The minimal bactericidal concentration (MBC) is the lowest concentration with blue coloration (99.9% of bacteria were killed). Three to five independent assays were performed in triplicate. Positive controls correspond to medium plus 0.2% formaldehyde and negative controls to medium without peptide.” left out

S. epidermidis BM3302 = type: cell-based, Staphylococcus epidermidis
Text: as §1

K. rhizophila ATCC 9341 = type: cell-based, Kocuria rhizophila
Text: as §1

B. subtilis CIP 52.65 = type: cell-based, Bacillus subtilis subsp. subtilis
Text: as §1

S. aureus ATCC 29213 = type: cell-based, Staphylococcus aureus
Text: as §1

S. aureus ATCC 6538 = type: cell-based, Staphylococcus aureus
Text: as §1

S. aureus DAR 5829 = type: cell-based, Staphylococcus aureus; details: S. aureus DAR 5829, multi-resistant strain
Text: as §1

S. aureus ST 1065 = type: cell-based, Staphylococcus aureus
Text: as §1

E. faecalis ATCC 29212 = type: cell-based, Enterococcus faecalis
Text: as §1

E. faecium BM 4147 = type: cell-based, Enterococcus faecium; details: E. faecium BM 4147, multi-resistant strain
Text: as §1

A549 cells = assay: Cytotoxicity, trypan blue exclusion; type: cell-based; details: A549 human lung carcinoma cells, 2-hour incubation at 37°C, 5% CO2, concentrations as high as 100 μM; 3 independent experiments in triplicate
Experimental: A549 cells (ATCC CCL-185), a human lung carcinoma cell line, were cultivated at 37°C, humid atmosphere and 5% CO2, in Petri dishes with DMEM Advanced medium (Gibco) supplemented with 5% of fetal bovine serum (FBS), 2 mM of glutamine, 100 U of penicillin and 50 μg/mL of streptomycin (Gibco). When the cells reached 80% confluence, the medium was discarded and the cells were washed with PBS 1×, before being treated with Trypsin 1× for 2 minutes to detach them form the culture dish. Cells were then resuspended in DMEM medium, seeded in a 48-well culture plate (500 000 cells/well), and either form of DMS-DA6 solubilized in PBS 1× was added and incubated for 2 hours at 37°C, 5% CO2. DMSO 30% was used as a positive control to induce cell death, and DMEM medium as negative control. After incubation, cell viability was assessed by trypan blue exclusion.

[2] = LB, 10^7 cfu/mL, 18 h at 37°C, averaged over >=3 independent experiments in triplicate
[3] = resazurin dye added after MIC, further 18 h at 37°C, 99.9% killed, averaged over >=3 experiments in triplicate

For `CC[C@H](C)[C@H](NC(=O)CNC(=O)[C@H](Cc1c[nH]c2ccccc12)NC(=O)[C@@H](NC(=O)CN)C(C)C)C(=O)N[C@@H](C)C(=O)N[C@@H](CCCCN)C(=O)N[C@H](C(=O)N[C@@H](C)C(=O)NCC(=O)N[C@@H](CCCCN)C(=O)N[C@H](C(=O)N[C@@H](CC(C)C)C(=O)NCC(=O)N[C@@H](CC(N)=O)C(=O)N[C@H](C(=O)N[C@@H](CC(C)C)C(=O)N1CCC[C@H]1C(=O)N[C@@H](Cc1c[nH]cn1)C(=O)N[C@H](C(=O)N[C@@H](Cc1ccccc1)C(=O)N[C@@H](CO)C(=O)N[C@@H](CO)C(=O)N[C@@H](CC(N)=O)C(=O)N[C@@H](CCC(N)=O)C(=O)N[C@@H](CO)C(=O)O)C(C)C)[C@@H](C)CC)C(C)C)[C@@H](C)CC` [DMS-DA6-OH] (H-GVWGIAKIAGKVLGNILPHVFSSNQS-OH), the MIC (E. coli ATCC 35218) was >100 µM, the MIC (E. coli ATCC 8739; [2]) was 50 µM (≈ 135 µg/mL) and the MBC (E. coli ATCC 8739; [3]) was 100 µM (≈ 269 µg/mL). For the same compound, the MIC (E. coli K12) was >100 µM, the MIC (E. coli ML 35p) was >100 µM and the MIC [1] was >100 µM. The MIC (S. epidermidis BM3302; [2]) was 25 µM (≈ 67.3 µg/mL), the MBC (S. epidermidis BM3302; [3]) was 25 µM (≈ 67.3 µg/mL) and the MIC (K. rhizophila ATCC 9341; [2]) was 6.25 µM (≈ 16.8 µg/mL). It also gave an MBC (K. rhizophila ATCC 9341; [3]) of 12.5 µM (≈ 33.7 µg/mL), an MIC (B. subtilis CIP 52.65; [2]) of 12.5 µM (≈ 33.7 µg/mL) and an MBC (B. subtilis CIP 52.65; [3]) of 12.5 µM (≈ 33.7 µg/mL). The MIC (S. aureus ATCC 29213; [2]) was 6.25 µM (≈ 16.8 µg/mL), the MBC (S. aureus ATCC 29213; [3]) was 25 µM (≈ 67.3 µg/mL) and the MIC (S. aureus ATCC 6538; [2]) was 12.5 µM (≈ 33.7 µg/mL). The MBC (S. aureus ATCC 6538; [3]) was 12.5 µM (≈ 33.7 µg/mL), the MIC (S. aureus DAR 5829; [2]) was 50 µM (≈ 135 µg/mL) and the MBC (S. aureus DAR 5829; [3]) was 50 µM (≈ 135 µg/mL). For the same compound, the MIC (S. aureus ST 1065; [2]) was 25 µM (≈ 67.3 µg/mL), the MBC (S. aureus ST 1065; [3]) was 25 µM (≈ 67.3 µg/mL) and the MIC (E. faecalis ATCC 29212; [2]) was 100 µM (≈ 269 µg/mL). The MBC (E. faecalis ATCC 29212; [3]) was 100 µM (≈ 269 µg/mL), the MIC (E. faecium BM 4147; [2]) was 50 µM (≈ 135 µg/mL) and the MBC (E. faecium BM 4147; [3]) was 100 µM (≈ 269 µg/mL). For the same compound, the “death of A549 cells (trypan blue exclusion)” value (A549 cells) was “neither DMS-DA6-OH (net charge +2) nor DMS-DA6-NH2 (net charge +3) resulted in the death” and the intact peptide remaining was > 90%.
